Data: ChEMBL document CHEMBL3351810, “[(11)C-carbonyl]CEP-32496: radiosynthesis, biodistribution and PET study of brain uptake in P-gp/BCRP knockout mice” (Bioorg Med Chem Lett, 2014)

Assays:
Mus musculus [1] = experiment: Biodistribution in mouse small intestine at 8.4 MBq/0.1 ml, iv after 30 mins by PET imaging analysis; format: ADME, organism-based; settings: in vivo, 0.5 h
Heart [2] = experiment: Biodistribution in mouse heart at 8.4 MBq/0.1 ml, iv after 5 mins by PET imaging analysis; format: ADME, organism-based; settings: in vivo
Brain [3] = experiment: Biodistribution in mouse brain at 8.4 MBq/0.1 ml, iv after 15 mins by PET imaging analysis; format: ADME, organism-based; settings: in vivo, 0.25 h
Heart [4] = experiment: Biodistribution in mouse heart at 8.4 MBq/0.1 ml, iv after 15 mins by PET imaging analysis; format: ADME, organism-based; settings: in vivo, 0.25 h
Mus musculus [5] = experiment: Biodistribution in mouse small intestine at 8.4 MBq/0.1 ml, iv after 60 mins by PET imaging analysis; format: ADME, organism-based; settings: in vivo, 1 h
Brain [6] = experiment: Biodistribution in mouse brain at 8.4 MBq/0.1 ml, iv after 5 mins by PET imaging analysis; format: ADME, organism-based; settings: in vivo
Pancreas [7] = experiment: Biodistribution in mouse pancreas at 8.4 MBq/0.1 ml, iv after 1 min by PET imaging analysis; format: ADME, organism-based; settings: in vivo
Muscle tissue [8] = experiment: Biodistribution in mouse muscle at 8.4 MBq/0.1 ml, iv after 15 mins by PET imaging analysis; format: ADME, organism-based; settings: in vivo, 0.25 h
Heart [9] = experiment: Biodistribution in mouse heart at 8.4 MBq/0.1 ml, iv after 60 mins by PET imaging analysis; format: ADME, organism-based; settings: in vivo, 1 h
Kidney [10] = experiment: Biodistribution in mouse kidney at 8.4 MBq/0.1 ml, iv after 60 mins by PET imaging analysis; format: ADME, organism-based; settings: in vivo, 1 h
Lung [11] = experiment: Biodistribution in mouse lung at 8.4 MBq/0.1 ml, iv after 15 mins by PET imaging analysis; format: ADME, organism-based; settings: in vivo, 0.25 h
Mus musculus [12] = experiment: Biodistribution in mouse small intestine at 8.4 MBq/0.1 ml, iv after 1 min by PET imaging analysis; format: ADME, organism-based; settings: in vivo
Spleen [13] = experiment: Biodistribution in mouse spleen at 8.4 MBq/0.1 ml, iv after 15 mins by PET imaging analysis; format: ADME, organism-based; settings: in vivo, 0.25 h
Kidney [14] = experiment: Biodistribution in mouse kidney at 8.4 MBq/0.1 ml, iv after 1 min by PET imaging analysis; format: ADME, organism-based; settings: in vivo
Pancreas [15] = experiment: Biodistribution in mouse pancreas at 8.4 MBq/0.1 ml, iv after 60 mins by PET imaging analysis; format: ADME, organism-based; settings: in vivo, 1 h
Spleen [16] = experiment: Biodistribution in mouse spleen at 8.4 MBq/0.1 ml, iv after 1 min by PET imaging analysis; format: ADME, organism-based; settings: in vivo
Heart [17] = experiment: Biodistribution in mouse heart at 8.4 MBq/0.1 ml, iv after 1 min by PET imaging analysis; format: ADME, organism-based; settings: in vivo
Mus musculus [18] = experiment: Biodistribution in mouse large intestine at 8.4 MBq/0.1 ml, iv after 30 mins by PET imaging analysis; format: ADME, organism-based; settings: in vivo, 0.5 h
Mus musculus [19] = experiment: Biodistribution in mouse small intestine at 8.4 MBq/0.1 ml, iv after 5 mins by PET imaging analysis; format: ADME, organism-based; settings: in vivo
Brain [20] = experiment: Ratio of drug uptake in P-gp/BCRP knockout mouse brain to wild type mouse brain; format: ADME; settings: in vivo
Brain [21] = experiment: Ratio of AUC (0 to 90 mins) in P-gp/BCRP knockout mouse brain to AUC (0 to 90 mins) in wild type mouse brain; settings: in vivo
Muscle tissue [22] = experiment: Biodistribution in mouse muscle at 8.4 MBq/0.1 ml, iv after 30 mins by PET imaging analysis; format: ADME, organism-based; settings: in vivo, 0.5 h
Mus musculus [23] = experiment: Biodistribution in mouse large intestine at 8.4 MBq/0.1 ml, iv after 15 mins by PET imaging analysis; format: ADME, organism-based; settings: in vivo, 0.25 h
Lung [24] = experiment: Biodistribution in mouse lung at 8.4 MBq/0.1 ml, iv after 30 mins by PET imaging analysis; format: ADME, organism-based; settings: in vivo, 0.5 h
Pancreas [25] = experiment: Biodistribution in mouse pancreas at 8.4 MBq/0.1 ml, iv after 30 mins by PET imaging analysis; format: ADME, organism-based; settings: in vivo, 0.5 h
Blood [26] = experiment: Biodistribution in mouse blood at 8.4 MBq/0.1 ml, iv after 30 mins by PET imaging analysis; format: ADME, organism-based; settings: in vivo, 0.5 h
Blood [27] = experiment: Biodistribution in mouse blood at 8.4 MBq/0.1 ml, iv after 1 min by PET imaging analysis; format: ADME, organism-based; settings: in vivo
Kidney [28] = experiment: Biodistribution in mouse kidney at 8.4 MBq/0.1 ml, iv after 15 mins by PET imaging analysis; format: ADME, organism-based; settings: in vivo, 0.25 h
Mus musculus [29] = experiment: Biodistribution in mouse small intestine at 8.4 MBq/0.1 ml, iv after 15 mins by PET imaging analysis; format: ADME, organism-based; settings: in vivo, 0.25 h
Mus musculus [30] = experiment: Biodistribution in mouse large intestine at 8.4 MBq/0.1 ml, iv after 60 mins by PET imaging analysis; format: ADME, organism-based; settings: in vivo, 1 h
Spleen [31] = experiment: Biodistribution in mouse spleen at 8.4 MBq/0.1 ml, iv after 5 mins by PET imaging analysis; format: ADME, organism-based; settings: in vivo
Lung [32] = experiment: Biodistribution in mouse lung at 8.4 MBq/0.1 ml, iv after 60 mins by PET imaging analysis; format: ADME, organism-based; settings: in vivo, 1 h
Brain [33] = experiment: Biodistribution in mouse brain at 8.4 MBq/0.1 ml, iv after 30 mins by PET imaging analysis; format: ADME, organism-based; settings: in vivo, 0.5 h
Blood [34] = experiment: Biodistribution in mouse blood at 8.4 MBq/0.1 ml, iv after 15 mins by PET imaging analysis; format: ADME, organism-based; settings: in vivo, 0.25 h
Kidney [35] = experiment: Biodistribution in mouse kidney at 8.4 MBq/0.1 ml, iv after 30 mins by PET imaging analysis; format: ADME, organism-based; settings: in vivo, 0.5 h
Muscle tissue [36] = experiment: Biodistribution in mouse muscle at 8.4 MBq/0.1 ml, iv after 1 min by PET imaging analysis; format: ADME, organism-based; settings: in vivo
Heart [37] = experiment: Biodistribution in mouse heart at 8.4 MBq/0.1 ml, iv after 30 mins by PET imaging analysis; format: ADME, organism-based; settings: in vivo, 0.5 h
Blood [38] = experiment: Biodistribution in mouse blood at 8.4 MBq/0.1 ml, iv after 60 mins by PET imaging analysis; format: ADME, organism-based; settings: in vivo, 1 h
Muscle tissue [39] = experiment: Biodistribution in mouse muscle at 8.4 MBq/0.1 ml, iv after 60 mins by PET imaging analysis; format: ADME, organism-based; settings: in vivo, 1 h
Liver [40] = experiment: Biodistribution in mouse liver at 8.4 MBq/0.1 ml, iv after 1 min by PET imaging analysis; format: ADME, organism-based; settings: in vivo
Mus musculus [41] = experiment: Biodistribution in mouse large intestine at 8.4 MBq/0.1 ml, iv after 1 min by PET imaging analysis; format: ADME, organism-based; settings: in vivo
Liver [42] = experiment: Biodistribution in mouse liver at 8.4 MBq/0.1 ml, iv after 30 mins by PET imaging analysis; format: ADME, organism-based; settings: in vivo, 0.5 h
Brain [43] = experiment: Biodistribution in mouse brain at 8.4 MBq/0.1 ml, iv after 60 mins by PET imaging analysis; format: ADME, organism-based; settings: in vivo, 1 h
Brain [44] = experiment: Biodistribution in wild type mouse brain by PET imaging analysis; format: ADME, organism-based; settings: in vivo
Mus musculus [45] = experiment: Biodistribution in mouse large intestine at 8.4 MBq/0.1 ml, iv after 5 mins by PET imaging analysis; format: ADME, organism-based; settings: in vivo
Brain [46] = experiment: Biodistribution in mouse brain at 8.4 MBq/0.1 ml, iv after 1 min by PET imaging analysis; format: ADME, organism-based; settings: in vivo
Liver [47] = experiment: Biodistribution in mouse liver at 8.4 MBq/0.1 ml, iv after 5 mins by PET imaging analysis; format: ADME, organism-based; settings: in vivo
Pancreas [48] = experiment: Biodistribution in mouse pancreas at 8.4 MBq/0.1 ml, iv after 5 mins by PET imaging analysis; format: ADME, organism-based; settings: in vivo
Blood [49] = experiment: Biodistribution in mouse blood at 8.4 MBq/0.1 ml, iv after 5 mins by PET imaging analysis; format: ADME, organism-based; settings: in vivo
Lung [50] = experiment: Biodistribution in mouse lung at 8.4 MBq/0.1 ml, iv after 5 mins by PET imaging analysis; format: ADME, organism-based; settings: in vivo
Pancreas [51] = experiment: Biodistribution in mouse pancreas at 8.4 MBq/0.1 ml, iv after 15 mins by PET imaging analysis; format: ADME, organism-based; settings: in vivo, 0.25 h
Muscle tissue [52] = experiment: Biodistribution in mouse muscle at 8.4 MBq/0.1 ml, iv after 5 mins by PET imaging analysis; format: ADME, organism-based; settings: in vivo
Lung [53] = experiment: Biodistribution in mouse lung at 8.4 MBq/0.1 ml, iv after 1 min by PET imaging analysis; format: ADME, organism-based; settings: in vivo
Brain [54] = experiment: Biodistribution in P-gp/BCRP knockout mouse brain by PET imaging analysis; format: ADME, organism-based; settings: in vivo
Spleen [55] = experiment: Biodistribution in mouse spleen at 8.4 MBq/0.1 ml, iv after 60 mins by PET imaging analysis; format: ADME, organism-based; settings: in vivo, 1 h
Kidney [56] = experiment: Biodistribution in mouse kidney at 8.4 MBq/0.1 ml, iv after 5 mins by PET imaging analysis; format: ADME, organism-based; settings: in vivo
Spleen [57] = experiment: Biodistribution in mouse spleen at 8.4 MBq/0.1 ml, iv after 30 mins by PET imaging analysis; format: ADME, organism-based; settings: in vivo, 0.5 h
Liver [58] = experiment: Biodistribution in mouse liver at 8.4 MBq/0.1 ml, iv after 60 mins by PET imaging analysis; format: ADME, organism-based; settings: in vivo, 1 h
Liver [59] = experiment: Biodistribution in mouse liver at 8.4 MBq/0.1 ml, iv after 15 mins by PET imaging analysis; format: ADME, organism-based; settings: in vivo, 0.25 h

## COc1cc2ncnc(Oc3cccc(N[11C](=O)Nc4cc(C(C)(C)C(F)(F)F)on4)c3)c2cc1OC.Cl
Mus musculus [1]
  Drug uptake: 25.4 % ID/g
Heart [2]
  Drug uptake: 4.43 % ID/g
Brain [3]
  Drug uptake: 0.11 % ID/g
Heart [4]
  Drug uptake: 3.56 % ID/g
Mus musculus [5]
  Drug uptake: 21.23 % ID/g
Brain [6]
  Drug uptake: 0.1 % ID/g
Pancreas [7]
  Drug uptake: 2.96 % ID/g
Muscle tissue [8]
  Drug uptake: 1.6 % ID/g
Heart [9]
  Drug uptake: 1.98 % ID/g
Kidney [10]
  Drug uptake: 4.91 % ID/g
Lung [11]
  Drug uptake: 3.76 % ID/g
Mus musculus [12]
  Drug uptake: 5.92 % ID/g
Spleen [13]
  Drug uptake: 2.05 % ID/g
Kidney [14]
  Drug uptake: 12.33 % ID/g
Pancreas [15]
  Drug uptake: 2.66 % ID/g
Spleen [16]
  Drug uptake: 3.92 % ID/g
Heart [17]
  Drug uptake: 11.25 % ID/g
Mus musculus [18]
  Drug uptake: 1.69 % ID/g
Mus musculus [19]
  Drug uptake: 14.31 % ID/g
Brain [20]
  Ratio: 24
Brain [21]
  Ratio AUC: 8
Muscle tissue [22]
  Drug uptake: 1.54 % ID/g
Mus musculus [23]
  Drug uptake: 1.01 % ID/g
Lung [24]
  Drug uptake: 3.34 % ID/g
Pancreas [25]
  Drug uptake: 3.94 % ID/g
Blood [26]
  Drug uptake: 0.87 % ID/g
Blood [27]
  Drug uptake: 3.14 % ID/g
Kidney [28]
  Drug uptake: 7.68 % ID/g
Mus musculus [29]
  Drug uptake: 22.18 % ID/g
Mus musculus [30]
  Drug uptake: 1.98 % ID/g
Spleen [31]
  Drug uptake: 2.05 % ID/g
Lung [32]
  Drug uptake: 2.24 % ID/g
Brain [33]
  Drug uptake: 0.12 % ID/g
Blood [34]
  Drug uptake: 0.95 % ID/g
Kidney [35]
  Drug uptake: 7.44 % ID/g
Muscle tissue [36]
  Drug uptake: 2.37 % ID/g
Heart [37]
  Drug uptake: 3.08 % ID/g
Blood [38]
  Drug uptake: 0.61 % ID/g
Muscle tissue [39]
  Drug uptake: 1.06 % ID/g
Liver [40]
  Drug uptake: 17.18 % ID/g
Mus musculus [41]
  Drug uptake: 0.81 % ID/g
Liver [42]
  Drug uptake: 18.42 % ID/g
Brain [43]
  Drug uptake: 0.08 % ID/g
Brain [44]
  Drug uptake: Active
Mus musculus [45]
  Drug uptake: 0.76 % ID/g
Brain [46]
  Drug uptake: 0.21 % ID/g
Liver [47]
  Drug uptake: 15.3 % ID/g
Pancreas [48]
  Drug uptake: 2.77 % ID/g
Blood [49]
  Drug uptake: 0.99 % ID/g
Lung [50]
  Drug uptake: 4.75 % ID/g
Pancreas [51]
  Drug uptake: 3.52 % ID/g
Muscle tissue [52]
  Drug uptake: 1.52 % ID/g
Lung [53]
  Drug uptake: 14.3 % ID/g
Brain [54]
  Drug uptake: Active
Spleen [55]
  Drug uptake: 1.36 % ID/g
Kidney [56]
  Drug uptake: 8.36 % ID/g
Spleen [57]
  Drug uptake: 2.03 % ID/g
Liver [58]
  Drug uptake: 12.69 % ID/g
Liver [59]
  Drug uptake: 17.4 % ID/g
